Measurements taken from article PMC7821381, “Multi-Targeted Anticancer Activity of Imidazolate Phosphane Gold(I) Compounds by Inhibition of DHFR and TrxR in Breast Cancer Cells” (Frontiers in Chemistry, 2021).

Legend:
EB-ct-DNA = assay: Competitive binding fluorescence study with EtBr (EB-ct-DNA); design: species or system calf; conditions: competitive EtBr displacement, fluorescence quenching, pH 7.4
Text: EtBr weakly emits fluorescence in aqueous solutions (Pasternack et al., [1983]), however in presence of ct-DNA strongly emits at ~600 nm due to strong intercalation between adjacent DNA base pairs. Ethidium bromide (EB) can be employed as a probe for the spectroscopic study of the interaction between DNA and intercalating species because of a 24-fold decrease in its fluorescence when displaced from an intercalation site by the addition of a competitive binding molecule probably due to decreasing in the number of binding sites accessible to EtBr (Tong et al., [2012]). […] Fluorescence quenching spectra were recorded using a Hitachi 4,500 spectrofluorometer with an excitation wavelength of 490 nm and emission spectrum 500–700 nm. The fluorescence spectra were recorded and the fluorescence value of the decrease in emission spectra was corrected according to the relationship:
where Fc and Fm are the corrected and measured fluorescence, respectively. A1 and A2 are the absorbance of tested compounds at the exciting and emission wavelengths. For fluorescence quenching experiments, Stern-Volmer's equation was used (Equation 3): […]

SKBR3 cells = assay: MTT cell viability assay on SKBR3 cells; format: cell-based, human; conditions: for IC50: SKBR3, 48 h, ± S. D.; for cytotoxic activity in MTT screening: SKBR3 cells, 72 h (Figure 1S) and 48 h (Figure 2)
Text: Human MDA-MB-231 (ER–/PR–/HER2–) and SK-BR-3 (ER–/PR–/HER2+) cells were obtained from American Type Culture Collection (Rockville, MD) and cultured in Dulbecco's Modified Essential Medium (DMEM, Gibco, Life Technologies) supplemented with 10% fetal bovine serum (FBS, Gibco, Life Technologies) and 1% penicillin–streptomycin (Gibco, Life Technologies). A17 cells were established from a spontaneous lobular carcinoma that arose in an FVB/neuT mouse (Galiè et al., [2005]), and maintained in DMEM plus 20% FBS and 1% penicillin-streptomycin. Cells were cultured at 37°C under humidified atmosphere with 5% CO2.
Stock solutions were prepared for each gold(I) compound (50 mM) using dimethyl sulfoxide (DMSO) (Sigma-Aldrich) as solvent. The effects of gold(I) compounds on SKBR3, A17 and MDA-MB231 cells viability were evaluated by seeding, respectively, 10, ^*10^3, 2.5 ^*10^3, 7, ^*10^3 cells/well in 96 wells plates in complete medium (DMEM supplemented with FBS) and compared to those of cisplatin. The day after, fresh medium containing vehicle alone (DMSO, 1 % v/v final concentration) or increasing concentrations of each compound ranging from 0.1 to 100 μM was added. Cell viability was determined using a MTT [3-(4,5-dimethylthiazol-2-yl)-2,5-diphenyl-2H-tetrazolium bromide Sigma Aldrich, St. Louis, MO] assay, which is based on the conversion of MTT to formazan crystals by mitochondrial enzymes, after 24, 48, and 72 h. The formazan deposits were dissolved in DMSO and the absorbance of each well was measured at 540 nm in Multiskan Ascent 96/384 Plate Reader. Each drug concentration was evaluated with 8 replicates and each experiment was repeated three times. At the end of the experiments a dose–response curve was plotted, and the IC50 concentrations were determined. Statistical analysis was performed using One-Way ANOVA analysis of variance followed by Dunnett's Multiple Comparison Test. Quantitative data are presented as means ± SEM. Differences were considered significant at ^*P ≤ 0.0332; ^**P ≤ 0.0021; ^***P ≤ 0.0002; ^****P ≤ 0.0001.
IC50 values were calculated for each of the cell lines tested, by fitting the concentration-effect curves data obtained in the three experiments with the sigmoid-Emax model using nonlinear regression, weighted by the reciprocal of the square of the predicted effect.

calf thymus DNA (ct-DNA) = assay: UV-Vis absorption titration with ct-DNA; format: binding; conditions: as restated in the discussion
Description: Stock solutions of calf thymus DNA (ct-DNA) (Sigma–Aldrich) were prepared by dissolving the DNA powder overnight in 10 mM Tris–HCl pH 7.4, 10 mM NaCl and incubated under stirrer at 4°C for 12h. […] The concentration of the ct-DNA solution was determined by UV absorbance at 260 nm. The molar absorption coefficient at 260 nm, was taken as 6,600 M^−1 cm^−1 (Marmur, [1961]). Stock solutions of gold(I) complexes (compounds 5 and 6) were prepared in DMSO. Absorption titration experiments performed with fixed concentrations of the different gold(I) complexes (25 μM, in 10 mM Tris–HCl pH 7.4, 10 mM NaCl), gradually increasing the concentration of DNA. After addition of DNA to the compounds, the resulting solution was allowed to […] equilibrate at room temperature for 5 min. Then, the sample solution was scanned in the range 220–600 nm. For the different compounds the binding constant (Kb) was determined from the spectroscopic titration data using the following equation
[DNA]/(εa-εf)=[DNA]/(εb-εf)+1/Kb(εb-εf),Equation 1
where [DNA] is the concentration of DNA in base pairs, the apparent absorption coefficient (εa) was obtained by calculating Aobsd/[compound]. The terms εf and εb correspond to the extinction coefficient of free (unbound) and the fully bound compound, respectively. A plot of [DNA]/(εa-εf) vs. [DNA] will give a slope 1/(εb-εf) and an intercept 1/Kb(εb-εf). […]

BLBC tumors = tested on: BLBC tumors; design: method as in Gambini et al., 2018; conditions: ref Gambini et al., 2018; cited from earlier work
[1] = tested on: thioredoxin reductase (TrxR); conditions: for Specific enzymatic activity of TrxR: SKBR3, 12 h treatment, 8 μM (maximum inhibition), control 4.07 ± 0.32; for TrxR residual activity: SKBR3 cells, versus control cells
Description: The assay was performed as previously reported (Galassi et al., [2012]) in 0.2 M Na, K-phosphate buffer (pH 7.4) containing 2 mM EDTA. The assay contained 0.12 mM NADPH and different amounts of cell lysate. The reaction was initiated by the addition of 3 mM 5,5′-dithiobis (2-nitrobenzoic acid) (DTNB) and the increase of absorbance was monitored at 412 nm over 5 min at 25°C.

| Substance | EB-ct-DNA Ksv (EB-ct-DNA) | IC50 (SKBR3 cells) [µM] | cytotoxic activity in MTT screening (SKBR3 cells) | binding constant with ct-DNA (calf thymus DNA (ct-DNA)) [mM⁻¹] | activity against BLBC tumors transplanted in syngeneic mice compared with cisplatin (BLBC tumors) | Specific enzymatic activity of TrxR [1] | TrxR residual activity [1] [%] |
| --- | --- | --- | --- | --- | --- | --- | --- |
| 4,5-dicyano-imidazolate-1yl-gold(I)-(triphenylphosphane) [Compound 5] | 1.55 ± 0.34 10^3 M^−1 | 5.36 ± 0.35 | most active | 1.46 | much more active than cisplatin | 1.98 ± 0.06 (8 μM) mU/mg | 37 |
| 4,5-dichloro-imidazolate-1yl-gold(I)-(triphenylphosphane) [Compound 6] | 4.22 ± 0.34 10^3 M^−1 | 4.55 ± 0.25 | most active | 3.44 | much more active than cisplatin | 1.51 ± 0.04 (8 μM) mU/mg | 49 |
